Test results as given in US9243221B2, “Compositions and methods of functionally enhanced in vitro cell culture system” (HUREL CORPORATION, priority 2008, dated 2016).
Read-outs that look alike come from different tables or passages of the source.

What was measured:
[1] = test system: Cryopreserved human hepatocytes; assay: Long term accumulation of 4-OH midazolam in culture media of oxygenated hepatocyte co-cultures; format: in vitro ADME; conditions: in the presence and absence of rifampicin; FIG. 5B
[2] = test system: Cryopreserved human hepatocytes
Method: Cryopreserved human hepatocytes are cultured with 3T3-J2 fibroblasts under serum free conditions. Following overnight incubation in high oxygen tension (95% O2, 5% CO2) the cells are exposed to one of the following drugs: antipyrine, buspirone, metoprolol, sildenafil, and timolol.

Structure (SMILES)	clearance of drugs ([2]; human)	also measured
Cc1ncc2n1-c1ccc(Cl)cc1C(c1ccccc1F)=NC2O (stereo not shown) [4-OH midazolam]		accumulation of 4-OH midazolam in the culture media [1]: can be detected over 30 hours of culture
CC(C)(C)NC[C@H](O)COc1nsnc1N1CCOCC1 [timolol]	slow clearing	
Cc1cc(=O)n(-c2ccccc2)n1C [antipyrine]		clearance of drugs ([2]; cryopreserved human hepatocytes with 3T3-J2 fibroblasts, serum free, overnight 95% O2, 5% CO2, FIG. 5A): slow clearing
CCCc1nn(C)c2c(=O)[nH]c(-c3cc(S(=O)(=O)N4CCN(C)CC4)ccc3OCC)nc12 [sildenofil, sildenafil]	slow clearing	
